These results are taken from patent publication US9056875B2, “Substituted pyrazolo[3′,4′:4,5]thieno[2,3-C]pyridazin-3-amine analogs as positive allosteric modulators of the muscarinic acetylcholine receptor M4” (Vanderbilt University, priority 2012, dated 2015).

Read-outs that look alike come from different tables or passages of the source.

The target of the assay is T1, mAChR rM4 (Rattus norvegicus, UniProt P08485).
T1 construct: expressed in transfected cells
T1 sequence (P08485 1-478): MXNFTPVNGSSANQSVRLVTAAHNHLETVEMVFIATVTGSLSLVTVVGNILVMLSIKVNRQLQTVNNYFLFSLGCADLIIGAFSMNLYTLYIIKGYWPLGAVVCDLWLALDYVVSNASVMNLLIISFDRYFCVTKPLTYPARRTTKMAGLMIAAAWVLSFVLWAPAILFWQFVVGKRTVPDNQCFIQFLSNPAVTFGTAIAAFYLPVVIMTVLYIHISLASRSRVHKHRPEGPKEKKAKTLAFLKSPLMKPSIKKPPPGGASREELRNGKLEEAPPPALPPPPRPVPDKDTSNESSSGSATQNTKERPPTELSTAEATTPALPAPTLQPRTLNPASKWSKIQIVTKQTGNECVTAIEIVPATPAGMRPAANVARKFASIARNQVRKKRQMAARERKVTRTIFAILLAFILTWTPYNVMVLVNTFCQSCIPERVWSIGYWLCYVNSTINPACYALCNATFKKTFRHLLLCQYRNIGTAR
Nature of the assay: mAChR rM4 cell-based functional assay (calcium mobilization, potentiation of EC20 acetylcholine response). As to conditions: for Emax at 30 µM: %ACh maximum at 30 μM; for EC50: rM4-transfected CHO-K1 cells, positive allosteric modulation of EC20 ACh response. The source says:
Chinese hamster ovary (CHO-K1) cells stably expressing rat (r)M1 were purchased from the American Type Culture Collection and cultured according to their indicated protocol. CHO cells stably expressing human (h)M2, hM3, and hM5 were described previously (Levey A I, et al., (1991) J Neurosci 11:3218-3226.); hM1 and hM4 cDNAs were purchased from Missouri S&T cDNA Resource; rM4 cDNA was provided by T. I. Bonner (National Institutes of Health, Bethesda, Md.). rM2 and rM3 were cloned from a rat brain cDNA library and sequence verified. hM1, rM2, rM3, hM4, and rM4 cDNAs were used to stably transfect CHO-K1 cells purchased from the American Type Culture Collection using Lipofectamine® 2000. To make stable rM2, hM2, rM3, hM4, and rM4 cell lines for use in calcium mobilization assays, these cells also were stably transfected with a chimeric G-protein (Gqi5) (provided by B. R. Conklin, University of California, San Francisco) using Lipofectamine® 2000. rM1, hM1, rM3, hM3, rM5, and hM5 cells were grown in Ham's F-12 medium containing 10% heat-inactivated fetal bovine serum (FBS), 20 mM HEPES, and 50 μg/mL G418 sulfate. rM2-Gqi5, hM2-Gqi5, and hM4-Gqi5 cells were grown in the same medium also containing 500 μg/mL hygromycin B. Stable rM4-Gqi5 cells were grown in DMEM containing 10% heat-inactivated FBS, 20 mM HEPES, 400 μg/mL G418 sulfate, and 500 μg/mL Hygromycin B.
For high throughput measurement of agonist-evoked increases in intracellular calcium, CHO-K1 cells stably expressing the target muscarinic receptor were plated in growth medium lacking G418 and hygromycin at 15,000 cells/20 μL/well in Greiner 384-well black-walled, tissue culture (TC)-treated, clear-bottom plates (VWR). Cells were incubated overnight at 37° C. and 5% CO2. The next day, cells were washed using an ELX 405 (BioTek) with four washes (80 μL) of assay buffer then aspirated to 20 μL. Next, 20 μL of 16 μM Fluo-4/acetoxymethyl ester (Invitrogen, Carlsbad, Calif.) prepared as a 2.3 mM stock in DMSO and mixed in a 1:1 ratio with 10% (w/v) Pluronic F-127 and diluted in assay buffer was added to the wells and the cell plates were incubated for […] at 37° C. and 5% CO2. Dye was removed by washing with the ELX 405 (four 80 μL washes of assay buffer) then aspirated to 20 μL. Compound master plates were formatted in an 11 point CRC format (1:3 dilutions) in 100% DMSO with a starting concentration of 10 mM using the BRAVO liquid handler (Agilent). Test compound CRCs were then transferred to daughter plates (240 nL) using the Echo acoustic plate reformatter (Labcyte, Sunnyvale, Calif.) and then diluted into assay buffer (40 μL) to a 2× stock using a Thermo Fisher Combi (Thermo Fisher Scientific, Waltham, Mass.).
Calcium flux was measured using the Functional Drug Screening System (FDSS) 6000 (Hamamatsu Corporation, Tokyo, Japan) as an increase in the fluorescent static ratio. Compounds were applied to cells (20 μL, 2×) using the automated system of the FDSS 6000 at 4 s into the 300 s protocol and the data were collected at 1 Hz. At 144 s into the 300 s protocol, 10 μL of an EC20 concentration of the muscarinic receptor agonist acetylcholine was added (5×), followed by the addition of 12 μL an EC80 concentration of acetylcholine at the 230 s time point (5×). Agonist activity was analyzed as a concentration-dependent increase in calcium mobilization upon compound addition. Positive allosteric modulator activity was analyzed as a concentration-dependent increase in the EC20 acetylcholine response. Antagonist activity was analyzed as a concentration-dependent decrease in the EC80 acetylcholine response. Concentration-response curves were generated using a four-parameter logistical equation in XLfit™ curve fitting software (IDBS, Bridgewater, N.J.) for Excel (Microsoft, Redmond, Wash.) or Prism (GraphPad Software, Inc., San Diego, Calif.). […]
Background: Calcium flux is commonly read through the fluorescence of an indicator in the cells.

For `CC(=O)N1CCC(CNc2nn(C)c3c2sc2nnc(C)c(C)c23)CC1` [Compound 23, 1-(4-(((1,7,8-trimethyl-1H-pyrazolo[3′,4′:4,5]thieno[2,3-c]pyridazin-3-yl)amino)methyl)piperidin-1-yl)ethanone], the Emax at 30 µM was found to be 44%. For the same molecule, the EC50 (read-out: EC50) was found to be 1800 nM.
`Cc1nnc2sc3c(NC4CCN(S(C)(=O)=O)CC4)nn(C)c3c2c1C` [Compound 19, 1,7,8-trimethyl-N-(1-(methylsulfonyl)piperidin-4-yl)-1H-pyrazolo[3′,4′:4,5]thieno[2,3-c]pyridazin-3-amine]: the Emax at 30 µM was determined as 58%. The EC50 (read-out: EC50) worked out at 1100 nM.
For `Cc1nnc2sc3c(NC4CCNCC4)nn(C)c3c2c1C` [Compound 18, 1,7,8-trimethyl-N-(piperidin-4-yl)-1H-pyrazolo[3′,4′:4,5]thieno[2,3-c]pyridazin-3-amine], in that order: 31% and 5200 nM.
For `CC(=O)N1CCC(Nc2nn(C)c3c2sc2nnc(C)c(C)c23)CC1` [Compound 20, 1-(4-((1,7,8-trimethyl-1H-pyrazolo[3′,4′:4,5]thieno[2,3-c]pyridazin-3-yl)amino)piperidin-1-yl)ethanone], in that order: 51% and 1800 nM.
For `Cc1ncsc1CNc1nn(C)c2c1sc1nnc(C)c(C)c12` [Compound 11, 1,7,8-trimethyl-N-((4-methylthiazol-5-yl)methyl)-1H-pyrazolo[3′,4′:4,5]thieno[2,3-c]pyridazin-3-amine], the Emax at 30 µM stood at 56%. Also, the EC50 (read-out: EC50) stood at 55 nM.
For `Cc1nnc2sc3c(NCC4CC4)nn(C)c3c2c1C` [Compound 3, N-(cyclopropylmethyl)-1,7,8-trimethyl-1H-pyrazolo[3′,4′:4,5]thieno[2,3-c]pyridazin-3-amine] the same measures were 46% and 340 nM.
For `CC(=O)N1CC(Nc2nn(C)c3c2sc2nnc(C)c(C)c23)C1` [Compound 14, 1-(3-((1,7,8-trimethyl-1H-pyrazolo[3′,4′:4,5]thieno[2,3-c]pyridazin-3-yl)amino)azetidin-1-yl)ethanone], in that order: 69% and 170 nM.
`Cc1nnc2sc3c(NCc4ccoc4)nn(C)c3c2c1C` [Compound 7, N-(furan-3-ylmethyl)-1,7,8-trimethyl-1H-pyrazolo[3′,4′:4,5]thieno[2,3-c]pyridazin-3-amine]: the Emax at 30 µM was 60%. The EC50 (read-out: pEC50 (converted)) was 38.9 nM.
With `COc1ccc(CNc2nn(C)c3c2sc2nnc(C)c(C)c23)cc1` [Compound 1, N-(4-methoxybenzyl)-1,7,8-trimethyl-1H-pyrazolo[3′,4′:4,5]thieno[2,3-c]pyridazin-3-amine], the Emax at 30 µM was 55%. Besides, the EC50 (read-out: EC50) was 48 nM.
In the case of `Cc1nnc2sc3c(NCc4cccs4)nn(C)c3c2c1C` [Compound 10, 1,7,8-trimethyl-N-(thiophen-2-ylmethyl)-1H-pyrazolo[3′,4′:4,5]thieno[2,3-c]pyridazin-3-amine], the Emax at 30 µM was 53%. Moreover, where the note is “read-out: pEC50 (converted)”, the EC50 was 30.9 nM.
As for `Cc1nnc2sc3c(NC4CNC4)nn(C)c3c2c1C` [Compound 16, N-(azetidin-3-yl)-1,7,8-trimethyl-1H-pyrazolo[3′,4′:4,5]thieno[2,3-c]pyridazin-3-amine], the Emax at 30 µM was 51%. In addition, the EC50 (read-out: EC50) is 1400 nM.
For `Cc1nnc2sc3c(NCC4CCN(C(=O)OC(C)(C)C)CC4)nn(C)c3c2c1C` [Compound 21, tert-butyl 4-(((1,7,8-trimethyl-1H-pyrazolo[3′,4′:4,5]thieno[2,3-c]pyridazin-3-yl)amino)methyl)piperidine-1-carboxylate], in that order: 42% and 710 nM.
`Cc1cc(CNc2nn(C)c3c2sc2nnc(C)c(C)c23)no1` [Compound 12, 1,7,8-trimethyl-N-((5-methylisoxazol-3-yl)methyl)-1H-pyrazolo[3′,4′:4,5]thieno[2,3-c]pyridazin-3-amine]: the Emax at 30 µM stood at 55%. For the same molecule, the EC50 (read-out: EC50) amounted to 500 nM.

What is called Emax is the size of the effect at its maximum, as opposed to the concentration needed.
